Test results reported in ChEMBL document CHEMBL1132622, “Synthesis, structure-activity relationships, and in vivo evaluations of substituted di-tert-butylphenols as a novel class of potent, selective, and orally active cyclooxygenase-2 inhibitors. 2. 1,3,4- and 1,2,4-thiadiazole series” (J Med Chem, 1999).

What follows are molecules tested against T1, Prostaglandin G/H synthase 2 (Homo sapiens, UniProt P35354) (assay: Inhibition of recombinant human prostaglandin G/H synthase 2 (COX-2)).
T1 sequence (P35354 whole entry): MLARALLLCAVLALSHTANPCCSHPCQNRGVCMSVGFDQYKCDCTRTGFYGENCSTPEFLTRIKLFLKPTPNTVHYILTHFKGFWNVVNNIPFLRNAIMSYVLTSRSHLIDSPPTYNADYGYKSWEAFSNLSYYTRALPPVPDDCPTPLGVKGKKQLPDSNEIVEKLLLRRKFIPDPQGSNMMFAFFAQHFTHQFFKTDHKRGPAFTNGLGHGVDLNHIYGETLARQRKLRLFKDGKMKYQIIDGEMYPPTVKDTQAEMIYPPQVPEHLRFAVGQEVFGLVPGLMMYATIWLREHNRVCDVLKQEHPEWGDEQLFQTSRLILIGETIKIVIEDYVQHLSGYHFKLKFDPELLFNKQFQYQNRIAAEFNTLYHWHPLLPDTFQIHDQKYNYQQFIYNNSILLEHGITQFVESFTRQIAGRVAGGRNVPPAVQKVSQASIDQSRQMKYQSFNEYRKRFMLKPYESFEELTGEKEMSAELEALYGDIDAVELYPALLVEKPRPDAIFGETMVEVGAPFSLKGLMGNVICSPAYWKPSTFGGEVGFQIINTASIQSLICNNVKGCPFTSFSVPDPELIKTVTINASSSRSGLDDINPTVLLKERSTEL

| SMILES | IC50 [µM] |
| --- | --- |
| CCSc1nnc(-c2cc(C(C)C)c(O)c(C(C)C)c2)s1 | > 20 |
| CCCSc1nnc(-c2cc(C(C)(C)C)c(O)c(C(C)(C)C)c2)o1 | > 20 |
| COc1c(C(C)(C)C)cc(-c2nnc(S)s2)cc1C(C)(C)C | 1.5 |
| CC(C)(C)c1cc(-c2noc(NC#N)n2)cc(C(C)(C)C)c1O | 0.064 |
| COc1c(C(C)(C)C)cc(-c2nnc(SC)s2)cc1C(C)(C)C | 0.34 |
| CC(C)Sc1nnc(-c2cc(C(C)C)c(O)c(C(C)C)c2)s1 | > 20 |

Next, values leading:

| IC50 [µM] | SMILES |
| --- | --- |
| 41 | CC(C)(C)c1cc(-c2nnc(SCCN)s2)cc(C(C)(C)C)c1O |
| > 20 | CC(C)(C)c1cc(-c2nnc(SCc3ccccc3)s2)cc(C(C)(C)C)c1O |
| 9.6 | CNc1nnc(-c2cc(C(C)(C)C)c(O)c(C(C)(C)C)c2)s1 |
| > 20 | C[S+]([O-])c1nnc(-c2cc(C(C)(C)C)c(O)c(C(C)(C)C)c2)s1 (stereo unspecified) |
| 6.1 | CCOc1nnc(-c2cc(C(C)(C)C)c(O)c(C(C)(C)C)c2)s1 |

What follows are molecules tested against T2, Prostaglandin G/H synthase 2 (Mus musculus, UniProt Q05769) (assay: IC50 value against Prostaglandin G/H synthase 2 of murine J774A.1 cell line).
T2 sequence (Q05769 whole entry): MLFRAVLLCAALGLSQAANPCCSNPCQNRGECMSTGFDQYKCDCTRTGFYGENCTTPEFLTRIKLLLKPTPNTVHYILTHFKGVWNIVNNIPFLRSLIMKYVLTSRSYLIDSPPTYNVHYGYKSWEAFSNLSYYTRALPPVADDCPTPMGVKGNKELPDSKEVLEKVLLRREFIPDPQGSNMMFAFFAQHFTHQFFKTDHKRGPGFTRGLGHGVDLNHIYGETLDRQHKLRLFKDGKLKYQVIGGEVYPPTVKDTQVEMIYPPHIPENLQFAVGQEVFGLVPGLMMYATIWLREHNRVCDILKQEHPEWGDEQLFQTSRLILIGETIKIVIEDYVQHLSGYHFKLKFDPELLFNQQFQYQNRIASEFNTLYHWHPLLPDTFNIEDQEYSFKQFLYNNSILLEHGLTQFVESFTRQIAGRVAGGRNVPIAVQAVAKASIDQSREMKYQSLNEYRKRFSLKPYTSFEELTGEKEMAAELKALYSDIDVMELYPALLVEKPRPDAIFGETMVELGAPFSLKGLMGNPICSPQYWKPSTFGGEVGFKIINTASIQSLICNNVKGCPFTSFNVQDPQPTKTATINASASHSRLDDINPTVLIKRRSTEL

| IC50 | SMILES |
| --- | --- |
| Not Active | CC(C)(C)c1cc(-c2nnc(SCCN)s2)cc(C(C)(C)C)c1O |
| Not Active | CCCSc1nnc(-c2cc(C(C)(C)C)c(O)c(C(C)(C)C)c2)o1 |

Each molecule was assayed against T3, Prostaglandin G/H synthase 1 (Ovis aries, UniProt P05979) (assay: IC50 value against ovine Prostaglandin G/H synthase 1).
T3 sequence (P05979 whole entry): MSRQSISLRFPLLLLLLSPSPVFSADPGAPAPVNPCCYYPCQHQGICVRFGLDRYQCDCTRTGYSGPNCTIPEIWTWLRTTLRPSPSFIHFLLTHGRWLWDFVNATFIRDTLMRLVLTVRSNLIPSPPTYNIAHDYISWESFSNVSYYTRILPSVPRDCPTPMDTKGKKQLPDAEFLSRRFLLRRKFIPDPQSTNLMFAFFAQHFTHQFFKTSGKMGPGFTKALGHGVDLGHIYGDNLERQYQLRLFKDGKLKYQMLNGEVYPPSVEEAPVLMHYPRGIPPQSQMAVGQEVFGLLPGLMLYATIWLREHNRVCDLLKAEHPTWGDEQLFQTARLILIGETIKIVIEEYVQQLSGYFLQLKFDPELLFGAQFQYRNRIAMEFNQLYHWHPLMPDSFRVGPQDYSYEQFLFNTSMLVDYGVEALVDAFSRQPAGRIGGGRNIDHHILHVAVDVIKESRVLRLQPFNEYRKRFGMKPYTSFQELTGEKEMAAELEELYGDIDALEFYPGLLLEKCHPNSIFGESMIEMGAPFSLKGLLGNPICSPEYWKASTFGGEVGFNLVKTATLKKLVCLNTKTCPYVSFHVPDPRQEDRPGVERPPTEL

| SMILES | IC50 [µM] |
| --- | --- |
| CCSc1nnc(-c2cc(C(C)C)c(O)c(C(C)C)c2)s1 | > 20 |
| CCCSc1nnc(-c2cc(C(C)(C)C)c(O)c(C(C)(C)C)c2)o1 | > 20 |
| COc1c(C(C)(C)C)cc(-c2nnc(S)s2)cc1C(C)(C)C | > 20 |
| CC(C)(C)c1cc(-c2noc(NC#N)n2)cc(C(C)(C)C)c1O | 51 |
| COc1c(C(C)(C)C)cc(-c2nnc(SC)s2)cc1C(C)(C)C | 5.8 |
| CC(C)Sc1nnc(-c2cc(C(C)C)c(O)c(C(C)C)c2)s1 | > 20 |

Results, then the molecule that gave them:

| IC50 [µM] | SMILES |
| --- | --- |
| 36 | CC(C)(C)c1cc(-c2nnc(SCCN)s2)cc(C(C)(C)C)c1O |
| > 20 | CC(C)(C)c1cc(-c2nnc(SCc3ccccc3)s2)cc(C(C)(C)C)c1O |
| 0.52 | CNc1nnc(-c2cc(C(C)(C)C)c(O)c(C(C)(C)C)c2)s1 |
| > 20 | C[S+]([O-])c1nnc(-c2cc(C(C)(C)C)c(O)c(C(C)(C)C)c2)s1 (stereo unspecified) |
| 3.4 | CCOc1nnc(-c2cc(C(C)(C)C)c(O)c(C(C)(C)C)c2)s1 |

These molecules were tested against Prostaglandin G/H synthase 1 (Homo sapiens, UniProt P23219) (assay: IC50 value against Prostaglandin G/H synthase 1 of human platelet rich plasma).
Sequence of Prostaglandin G/H synthase 1 (Homo sapiens, UniProt P23219) (P23219 whole entry): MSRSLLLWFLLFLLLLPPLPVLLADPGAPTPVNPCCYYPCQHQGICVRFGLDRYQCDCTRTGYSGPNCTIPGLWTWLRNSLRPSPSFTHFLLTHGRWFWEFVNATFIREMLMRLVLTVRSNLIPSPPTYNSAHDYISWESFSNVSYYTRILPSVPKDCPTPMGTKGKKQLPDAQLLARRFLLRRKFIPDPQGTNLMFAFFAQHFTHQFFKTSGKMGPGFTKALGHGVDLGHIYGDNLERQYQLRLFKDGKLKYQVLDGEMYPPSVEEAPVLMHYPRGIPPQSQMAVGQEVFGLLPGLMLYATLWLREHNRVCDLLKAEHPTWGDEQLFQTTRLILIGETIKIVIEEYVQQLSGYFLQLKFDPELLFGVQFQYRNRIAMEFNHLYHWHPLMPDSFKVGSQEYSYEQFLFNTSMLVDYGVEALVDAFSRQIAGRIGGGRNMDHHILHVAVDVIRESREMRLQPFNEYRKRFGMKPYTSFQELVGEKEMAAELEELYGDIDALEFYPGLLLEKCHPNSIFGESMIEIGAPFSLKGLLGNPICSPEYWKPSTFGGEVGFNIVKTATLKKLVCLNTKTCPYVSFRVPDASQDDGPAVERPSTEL
Assay type: cell-free; call rule not given here

| SMILES | IC50 [µM] |
| --- | --- |
| CCSc1nnc(-c2cc(C(C)C)c(O)c(C(C)C)c2)s1 | > 20 |
| CCCSc1nnc(-c2cc(C(C)(C)C)c(O)c(C(C)(C)C)c2)o1 | 1.9 |
| COc1c(C(C)(C)C)cc(-c2nnc(S)s2)cc1C(C)(C)C | > 20 |
| CC(C)(C)c1cc(-c2noc(NC#N)n2)cc(C(C)(C)C)c1O | 1.2 |
| COc1c(C(C)(C)C)cc(-c2nnc(SC)s2)cc1C(C)(C)C | 0.77 |

Next, values leading:

| IC50 [µM] | SMILES |
| --- | --- |
| > 20 | CC(C)(C)c1cc(-c2nnc(SCCN)s2)cc(C(C)(C)C)c1O |
| > 20 | CC(C)(C)c1cc(-c2nnc(SCc3ccccc3)s2)cc(C(C)(C)C)c1O |
| 0.3 | CNc1nnc(-c2cc(C(C)(C)C)c(O)c(C(C)(C)C)c2)s1 |
| > 20 | C[S+]([O-])c1nnc(-c2cc(C(C)(C)C)c(O)c(C(C)(C)C)c2)s1 (stereo unspecified) |
| 1.2 | CCOc1nnc(-c2cc(C(C)(C)C)c(O)c(C(C)(C)C)c2)s1 |

These molecules were tested against T2, Prostaglandin G/H synthase 2.

| SMILES | IC50 [µM] |
| --- | --- |
| CCSc1nnc(-c2cc(C(C)C)c(O)c(C(C)C)c2)s1 | 1.3 |
| COc1c(C(C)(C)C)cc(-c2nnc(S)s2)cc1C(C)(C)C | 0.3 |
| CC(C)(C)c1cc(-c2noc(NC#N)n2)cc(C(C)(C)C)c1O | 1.4 |
| COc1c(C(C)(C)C)cc(-c2nnc(SC)s2)cc1C(C)(C)C | 0.012 |

The next lines start with the values.

| IC50 [µM] | SMILES |
| --- | --- |
| > 20 | CC(C)(C)c1cc(-c2nnc(SCc3ccccc3)s2)cc(C(C)(C)C)c1O |
| 0.69 | CNc1nnc(-c2cc(C(C)(C)C)c(O)c(C(C)(C)C)c2)s1 |
| 0.07 | CCOc1nnc(-c2cc(C(C)(C)C)c(O)c(C(C)(C)C)c2)s1 |
